Read-outs that look alike come from different tables or passages of the source.
How the values were obtained:
[1] = EP 484,281 and Eur. J. Immunol., 17, 1359 (1987); cited from earlier work

Substance	immunosuppressing nature [1]	effect of combination (retroviruses; combined with AZT, ddl, Saquinavir, Nevirapin, Ritonavir and/or ribavirin)	effect of combination (retroviruses; combined with Indinavir)
[4'-hydroxy-MeLeu]^4 -cyclosporin A	not immunosuppressing		
[(R)-2-(N,N-Dimethylamino)ethylthio-Sar]^3 -[4'-hydroxy-MeLeu]^4 -cyclosporin A [Example 1]		synergistic effect	additive effect
